Measured values reported in PMC7156724, “Potent BRD4 inhibitor suppresses cancer cell-macrophage interaction” (Nature Communications, 2020).
Several values for one entry are separate records, joined by “and”; a condition that tells them apart may be missing. Equal values may be shown once. Read-outs that look alike come from different tables or passages of the source. Each block holds one compound with its values, some of them ahead of it.

System: A375 melanoma cells
Experiment: AlamarBlue assay, A375
Type: cell-based, human
Conditions: for Cellular activity in melanoma cells (A375), alamarBlue: Fig.1g, replicates; for IC50: read-out: IC50, cellular activity in A375 (alamarBlue)
Procedure: 3. AlamarBlue assay. AlamarBlue was made by resazurin sodium salt (Sigma, Cat
# 199303) dissolved in PBS.
NCI-H211, MDA-MB231 and A375 cells were plated in 96-well plates at approximately 30% confluence and left overnight to adhere. In the following day, […]
of treatment, 10 μl AlamarBlue reagent (0.3 mg/ml) was added to each well, and after 18h, the florescence intensity in each well was measured using a top-reading fluorescent plate reader with excitation at 530 nm and emission at 590 nm. […]

IC50 (Homo sapiens, A-375, nM printed in b8, the picture prints no unit): 35.6 nM
Compound: CCNC(=O)C[C@@H]1N=C(c2ccc(Cl)cc2)c2cc(OC)ccc2-n2c(C)nnc21 [GSK-525762]
Cellular activity in melanoma cells (A375), alamarBlue (concentration(nM) 0.21442, listed as GSK-525672): 0.7 and 0.7152 | Cellular activity in melanoma cells (A375), alamarBlue (concentration(nM) 0.31236, listed as GSK-525672): 2.411 and 2.845 | Cellular activity in melanoma cells (A375), alamarBlue (concentration(nM) 0.4103, listed as GSK-525672): 1.577 and 2.366 | Cellular activity in melanoma cells (A375), alamarBlue (concentration(nM) 0.6032, listed as GSK-525672): 8.146 and 9.5447 | Cellular activity in melanoma cells (A375), alamarBlue (concentration(nM) 1.2043, listed as GSK-525672): 25.5205 and 30.3178 | Cellular activity in melanoma cells (A375), alamarBlue (concentration(nM) 1.8024, listed as GSK-525672): 60.9618 and 63.2464 | Cellular activity in melanoma cells (A375), alamarBlue (concentration(nM) 2.4, listed as GSK-525672): 99.5135 and 98.5975 | Cellular activity in melanoma cells (A375), alamarBlue (concentration(nM) 3, listed as GSK-525672): 100.155 and 100.899

IC50 (nM): 55.5 nM
Compound: COc1cc2c(cc1-c1c(C)noc1C)ncc1[nH]c(=O)n([C@H](C)c3ccccn3)c12 [I-BET151]
Cellular activity in melanoma cells (A375), alamarBlue (concentration(nM) 0.21442): 0.1541 and 0.2687 | Cellular activity in melanoma cells (A375), alamarBlue (concentration(nM) 0.31236): 1.39 and 1.537 | Cellular activity in melanoma cells (A375), alamarBlue (concentration(nM) 0.4103): 1.399 and 1.952 | Cellular activity in melanoma cells (A375), alamarBlue (concentration(nM) 0.6032): 7.8413 and 3 | Cellular activity in melanoma cells (A375), alamarBlue (concentration(nM) 1.2043): 31.4642 and 32.5943 | Cellular activity in melanoma cells (A375), alamarBlue (concentration(nM) 1.8024): 46.9054 and 45.198 | Cellular activity in melanoma cells (A375), alamarBlue (concentration(nM) 2.4): 80.0356 and 78.8893 | Cellular activity in melanoma cells (A375), alamarBlue (concentration(nM) 3): 99.9805 and 100.846
